The text below walks through data of patent US20080261994A1, “CYCLOPROPANE COMPOUNDS AND PHARMACEUTICAL USE THEREOF” (Japan Tobacco Inc., priority 2003, published 2008).

pIC50: −log10 of the molar value.

Holding throughout (type): biochemical
The target of one experiment is T1, aggrecanase-1 (Homo sapiens, UniProt O75173).
T1 sequence (O75173 213-837): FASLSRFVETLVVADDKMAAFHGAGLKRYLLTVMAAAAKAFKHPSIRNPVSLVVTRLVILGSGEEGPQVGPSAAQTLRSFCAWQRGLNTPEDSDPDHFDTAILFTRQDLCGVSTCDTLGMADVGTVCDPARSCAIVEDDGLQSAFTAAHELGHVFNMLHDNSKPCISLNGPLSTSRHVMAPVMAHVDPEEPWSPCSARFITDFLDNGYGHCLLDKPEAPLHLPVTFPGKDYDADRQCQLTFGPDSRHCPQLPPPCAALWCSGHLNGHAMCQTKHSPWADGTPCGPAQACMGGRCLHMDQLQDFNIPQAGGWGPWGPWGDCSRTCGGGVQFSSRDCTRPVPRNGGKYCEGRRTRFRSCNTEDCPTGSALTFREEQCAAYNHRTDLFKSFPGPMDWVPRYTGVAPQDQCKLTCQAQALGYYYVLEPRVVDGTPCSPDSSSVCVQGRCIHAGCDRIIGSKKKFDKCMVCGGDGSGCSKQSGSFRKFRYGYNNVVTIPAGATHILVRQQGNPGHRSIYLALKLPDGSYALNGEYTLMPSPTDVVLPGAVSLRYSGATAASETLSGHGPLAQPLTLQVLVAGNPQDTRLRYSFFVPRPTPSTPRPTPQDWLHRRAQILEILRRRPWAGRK
Nature of the experiment: Aggrecanase-1 inhibitory action (Particle Assay, GAG release from aggrecan-containing polyacrylamide particles). The conditions noted are these: aggrecanase-1 inhibitory action; read-out: IC50 AG1 (Experimental Example 1). Here is the method:
Particle Assay was used for determination of aggrecanase activity.
(§1) The enzyme and substrate were diluted with Tris-HCl buffer, and test compounds were diluted with dimethyl sulfoxide (DMSO).
Test compounds and the enzyme were added into 96-well plate, and polyacrylamide particles containing aggrecan were added as a substrate and the mixture was incubated at 37° C. for 15 hr.
After incubation, the supernatant was transferred to another plate, and mixed with 1,9-dimethylmethylene blue. The absorbence at 595 nm was measured to quantify the amount of glycosaminoglycan (GAG) released in the reaction supernatant. Whale chondroitin sulfate was used as the standard of GAG. The inhibitory activity of the compound in each well (%) was calculated based on the values of enzyme-free well and inhibitor-free well. The inhibitory activity of the compound was represented as […] (μM).

Another experiment addresses T2, MMP-1 (Homo sapiens, UniProt P03956).
T2 sequence (P03956 100-469): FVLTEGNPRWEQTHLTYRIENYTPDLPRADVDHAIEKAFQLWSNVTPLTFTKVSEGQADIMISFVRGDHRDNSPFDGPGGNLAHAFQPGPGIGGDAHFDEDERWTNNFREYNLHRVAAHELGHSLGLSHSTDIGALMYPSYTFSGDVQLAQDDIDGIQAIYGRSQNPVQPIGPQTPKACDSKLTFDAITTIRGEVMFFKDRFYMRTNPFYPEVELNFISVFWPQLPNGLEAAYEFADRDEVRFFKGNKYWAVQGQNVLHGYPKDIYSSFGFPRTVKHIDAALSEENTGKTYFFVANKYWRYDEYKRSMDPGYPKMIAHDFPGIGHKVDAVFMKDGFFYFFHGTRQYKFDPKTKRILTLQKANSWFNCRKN
Nature of the experiment: MMP-1 inhibitory action (Type I collagen Activity Measurement kit, FITC-labeled collagen type I). Particulars: MMP-1 inhibitory action, FITC-labeled collagen type I, 37° C. for 3 hr; read-out: IC50 MMP1 (Experimental Example 2). Here is the method:
For MMP-1 Assay, Type I collagen Activity Measurement kit (YAGAI YU-72013) modified to a 96-well plate format was used.
The principle of the kit is based on the property of collagen that becomes soluble in ethanol after being cleaved by MMP-1.
as §1
The enzyme and test compounds were added into 96-well plate, and fluorescein isothiocianate (FITC)-labeled collagen type I was added as a substrate and the mixture was incubated at 37° C. for 3 hr.
The reaction was terminated by addition of Tris-HCl buffer containing ethanol. After centrifugation, the supernatant containing denatured substrate was transferred to another 96-well plate. The collagenase activity of MMP-1 was determined by measuring FITC fluorescence intensity (excitation wavelength 485 nm, emission wavelength 530 nm) of each well. The inhibitory activity of the compound in each well (%) was calculated based on the values of enzyme-free well and inhibitor-free well. The inhibitory activity of the compound was represented as IC50 (μM).

The target of a further experiment is T3, Recombinant Human MMP-13 (Homo sapiens, UniProt P45452).
T3 construct: purchased R&D systems 511-MM
Nature of the experiment: MMP-13 inhibitory activity (MMP-13 specific fluorescent substrate with quencher). Particulars: Recombinant Human MMP-13, fluorescent substrate, 25° C. for 1 h; read-out: IC50 MMP13 (Experimental Example 3). As to the method:
Inhibitory activity of tested compounds on MMP-13 was measured using MMP-13 specific fluorescent substrate with quencher.
as §1
Test compounds and the enzyme (Recombinant Human MMP-13: R&D systems, 511-MM) were added into 96-well plate. The reaction was initiated by adding synthetic substrate (7-MCA-Pro-CHA-Gly-NVal-His-Ala-DPA: enzyme systems products, Met-06) into the plate. After incubation at 25° C. for 1 h, the reaction was terminated by addition of reaction terminating solution containing acetic acid. Fluorescence intensity of each well was measured (Ex: 325 nm, […] 405 nm) and the MMP-13 inhibitory activity of the compound in each well (%) was calculated based on the values of enzyme-free well and inhibitor-free well. The inhibitory activity of the compound was represented as IC50 (μM).

On to `O=C(O)C1(NS(=O)(=O)c2ccc(-c3ccc(Cl)cc3)cc2)CC1c1cccc(NCc2cccnc2)c1` (stereo not drawn) [Example 1-3], for which the results for the negative logarithm of the IC50 (pIC50) on aggrecanase-1, at MMP-1 and at Recombinant Human MMP-13 were more than 7.00, not above 6.00 and more than 7.00, respectively.

In the case of `O=C(O)C1(NS(=O)(=O)c2ccc(-c3ccc(Cl)cc3)cc2)CC1c1cccc(Oc2ccccc2)c1` (stereo not drawn) [Example 1-10], the pIC50 (usually −log10 of the IC50, conventionally taken in molar units) at aggrecanase-1 is more than 6.00; on MMP-1 it was not above 6.00; on Recombinant Human MMP-13, more than 6.00.

As to `O=C(O)C1(NS(=O)(=O)c2ccc(-c3ccc(Cl)cc3)cc2)CC1c1cccc(Oc2ccc(Cl)cc2)c1` (stereo not drawn) [Example 1-11], the pIC50 was more than 6.00 at aggrecanase-1, not above 6.00 on MMP-1 and more than 6.00 at Recombinant Human MMP-13.

In the case of `COc1cccc(C2CC2(NS(=O)(=O)c2ccc(-c3ccc(Cl)cc3)cc2)C(=O)O)c1` (stereo not drawn) [Example 1-12], the negative logarithm of the IC50 (pIC50) at aggrecanase-1 is more than 6.00; on MMP-1 it was not above 6.00; at Recombinant Human MMP-13, more than 7.00.

`O=C(O)C1(NS(=O)(=O)c2ccc(-c3ccc(Cl)cc3)cc2)CC1c1ccc(Oc2ccccc2)cc1` (stereo not drawn) [Example 1-16]: the results for the negative logarithm of the IC50 (pIC50) at aggrecanase-1, on MMP-1 and at Recombinant Human MMP-13 were more than 6.00, not above 6.00 and more than 7.00, respectively.

On to `Nc1cccc(C2CC2(NS(=O)(=O)c2ccc(-c3ccc(Cl)cc3)cc2)C(=O)O)c1` (stereo not drawn) [Example 1-18], for which the pIC50 is more than 6.00 on aggrecanase-1, not above 6.00 at MMP-1 and more than 7.00 on Recombinant Human MMP-13.

Regarding `O=C(O)C1(NS(=O)(=O)c2ccc(-c3ccc(Cl)cc3)cc2)CC1c1cccc(-c2ccccc2)c1` (stereo not drawn) [Example 1-26], the pIC50 was more than 6.00 at aggrecanase-1, not above 5.00 at MMP-1 and more than 6.00 on Recombinant Human MMP-13.

As for `CS(=O)(=O)Nc1cccc(C2CC2(NS(=O)(=O)c2ccc(-c3ccc(Cl)cc3)cc2)C(=O)O)c1` (stereo not drawn) [Example 1-38], the pIC50 was more than 7.00 on aggrecanase-1, not above 5.00 at MMP-1 and more than 7.00 on Recombinant Human MMP-13.

`CC(=O)Nc1cccc(C2CC2(NS(=O)(=O)c2ccc(-c3ccc(Cl)cc3)cc2)C(=O)O)c1` (stereo not drawn) [Example 1-40]: the results for the pIC50 on aggrecanase-1, at MMP-1 and on Recombinant Human MMP-13 were more than 6.00, not above 6.00 and more than 7.00, respectively.

Regarding `COC(=O)Nc1cccc(C2CC2(NS(=O)(=O)c2ccc(-c3ccc(Cl)cc3)cc2)C(=O)O)c1` (stereo not drawn) [Example 1-41], the values for the negative logarithm of the IC50 (pIC50) at aggrecanase-1, on MMP-1 and at Recombinant Human MMP-13 were more than 6.00, not above 6.00 and more than 7.00, respectively.

As for `O=C(O)C1(NS(=O)(=O)c2ccc(-c3ccc4c(c3)Cc3ccccc3-4)cc2)CC1c1ccccc1` (stereo not drawn) [Example 1-54], the pIC50 was more than 6.00 at aggrecanase-1, not above 6.00 on MMP-1 and more than 6.00 at Recombinant Human MMP-13.

For `O=C(O)C1(NS(=O)(=O)c2ccc(-c3ccc(Cl)cc3)cc2)CC1c1cccc(Nc2ccccn2)c1` (stereo not drawn) [Example 1-61], the pIC50 on aggrecanase-1 is more than 6.00; on MMP-1 it was not above 6.00; on Recombinant Human MMP-13, more than 7.00.

With `O=C(Nc1cccc(C2CC2(NS(=O)(=O)c2ccc(-c3ccc(Cl)cc3)cc2)C(=O)O)c1)c1ccccn1` (stereo not drawn) [Example 1-62], the pIC50 on aggrecanase-1 was more than 6.00; on MMP-1, not above 6.00; at Recombinant Human MMP-13, more than 7.00.

For `O=C(Nc1cccc(C2CC2(NS(=O)(=O)c2ccc(-c3ccc(Cl)cc3)cc2)C(=O)O)c1)c1ccncc1` (stereo not drawn) [Example 1-63], the pIC50 on aggrecanase-1 is more than 6.00; on MMP-1 it was not above 6.00; at Recombinant Human MMP-13, more than 7.00.

Regarding `O=C(Nc1cccc(C2CC2(NS(=O)(=O)c2ccc(-c3ccc(Cl)cc3)cc2)C(=O)O)c1)c1cccnc1` (stereo not drawn) [Example 1-64], the negative-log IC50 (pIC50) on aggrecanase-1 is more than 6.00; on MMP-1 it was not above 6.00; at Recombinant Human MMP-13, more than 7.00.

With `O=C(O)C1(NS(=O)(=O)c2ccc(-c3ccc(Cl)cc3)cc2)CC1c1cccc(OCCO)c1` (stereo not drawn) [Example 1-66], the negative-log IC50 (pIC50) on aggrecanase-1 was more than 6.00; at MMP-1 it was not above 6.00; at Recombinant Human MMP-13, more than 7.00.

`O=C(O)C1(NS(=O)(=O)c2ccc(-c3ccc(Cl)cc3)cc2)CC1c1cccc(Oc2cccnc2)c1` (stereo not drawn) [Example 1-68]: the figures for the pIC50 at aggrecanase-1, on MMP-1 and on Recombinant Human MMP-13 were more than 6.00, not above 6.00 and more than 7.00, respectively.
